Key:
Experiment in all cases: relative viability (nuclei count vs DMSO), 5 days (fraction); higher = more cells survive
[1] = compound: C1CNCCC1C2=CC(=NN2)C3=CC=NC=C3 + C[C@]1(O)C[C@@H](c2nc(-c3ccc4ccc(-c5ccccc5)nc4c3)c3c(N)nccn32)C1 [Linsitinib] (partner 1 µM)
Procedure, shortened: (§1)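 Lung cancer cell lines were seeded in 1536-well plates and dosed by pin tool the next day, with either a single drug or a fixed anchor-drug dose combined with five library-drug doses (not always all listed) spaced in √10 steps. Five days later, one step fixed the cells and stained their nuclei (final 0.05% Triton X-100, 1% formaldehyde, 1 ug/ml Hoechst), and nuclei were counted on 4× images. Relative viability is the nuclei count in treated wells divided by the count in vehicle wells, and each value is the median of duplicate plates.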

[2] = compound: C1CNCCC1C2=CC(=NN2)C3=CC=NC=C3 + O=C(c1cc(Cc2n[nH]c(=O)c3ccccc23)ccc1F)N1CCN(C(=O)C2CC2)CC1 [Olaparib] (partner 8 µM)
Procedure, shortened: as §1

[3] = compound: C[C@@H](N)c1ccc(C(=O)Nc2ccnc3[nH]ccc23)cc1 + Cc1nc(NC(=O)N2CCC[C@H]2C(N)=O)sc1-c1ccnc(C(C)(C)C(F)(F)F)c1 [Alpelisib] (partner 2 µM)
Procedure, shortened: as §1

[4] = compound: C[C@@H](N)c1ccc(C(=O)Nc2ccnc3[nH]ccc23)cc1 + Cc1nc(Nc2ncc(C(=O)Nc3c(C)cccc3Cl)s2)cc(N2CCN(CCO)CC2)n1 [Dasatinib] (partner 0.075 µM)
Procedure, shortened: as §1

Cell Line | relative viability ([1]; first compound 0.08 µM) | relative viability ([1]; first compound 0.8 µM) | relative viability ([1]; first compound 2.53 µM) | relative viability ([1]; first compound 8 µM) | relative viability ([2]; first compound 0.08 µM) | relative viability ([2]; first compound 0.8 µM) | relative viability ([2]; first compound 2.53 µM) | relative viability ([2]; first compound 8 µM) | relative viability ([3]; first compound 0.04 µM) | relative viability ([3]; first compound 0.1265 µM) | relative viability ([3]; first compound 0.4 µM) | relative viability ([3]; first compound 1.265 µM) | relative viability ([3]; first compound 4 µM) | relative viability ([4]; first compound 0.04 µM) | relative viability ([4]; first compound 0.1265 µM) | relative viability ([4]; first compound 0.4 µM) | relative viability ([4]; first compound 1.265 µM) | relative viability ([4]; first compound 4 µM)
NCI-H2009 | 1.2 | 1.18 | 1.25 | 1.22 | 0.683 | 0.749 | 0.648 | 0.728 | 1.11 | 1.13 | 1.1 | 0.996 | 0.786 | 0.18 | 0.268 | 0.199 | 0.171 | 0.154
ABC-1 | 0.702 | 0.644 | 0.685 | 1.01 | 0.826 | 0.795 | 1.15 | 0.84 | 1.22 | 1.04 | 1.37 | 1.58 | 0.809 | 0.577 | 0.552 | 0.648 | 0.507 | 0.445
IA-LM | 0.717 | 0.893 | 0.958 | 0.621 | 1.02 | 0.916 | 0.87 | 0.846 | 0.83 | 0.999 | 1.09 | 1.11 | 1.06 |  |  |  |  | 
NCI-H322M | 0.874 | 0.71 | 0.899 | 0.888 | 0.73 | 0.716 | 0.844 | 0.923 | 0.909 | 0.838 | 0.935 |  | 0.969 | 0.242 | 0.253 | 0.266 |  | 0.318
NCI-H1792 | 0.521 | 0.514 | 0.566 | 0.534 | 0.504 | 0.385 | 0.471 | 0.353 | 0.733 | 0.648 | 0.745 | 0.691 | 0.62 | 0.831 | 0.875 | 0.826 | 0.672 | 0.534
LXF-289 | 0.963 | 1.04 | 0.981 | 0.9 | 1.04 | 1.16 | 0.968 | 1.05 | 1.12 | 1.04 | 1.04 | 1.07 | 0.85 | 0.105 | 0.234 | 0.185 | 0.11 | 0.116
HCC-827 | 0.992 | 0.963 | 1.05 | 0.956 | 0.597 | 0.0303 | 0.665 | 0.743 | 0.982 | 1.09 | 1.04 | 1.03 | 0.895 | 0.411 | 0.466 | 0.433 | 0.46 | 0.267
SW 900 |  |  |  |  | 1.02 |  | 0.868 | 0.861 |  |  |  |  |  | 0.722 | 0.549 | 0.606 | 0.44 | 0.488
NCI-H1299 | 0.987 | 1.14 | 1.05 | 0.924 | 1.03 | 0.97 | 0.946 | 0.91 | 1.05 | 1.04 | 0.997 | 0.894 | 0.926 |  |  |  |  | 
NCI-H1563 | 0.868 | 1.13 | 1.24 | 1.25 |  |  |  |  | 0.958 | 0.995 | 0.985 | 0.971 | 0.918 | 0.49 | 0.462 | 0.486 | 0.377 | 0.465
NCI-H1650 |  |  |  |  | 0.613 | 0.948 | 0.795 | 0.69 |  |  |  |  |  | 0.42 | 0.402 | 0.428 | 0.39 | 0.311
Calu-6 | 0.877 | 0.941 | 0.994 | 0.884 | 0.565 | 0.6 | 0.62 | 0.497 | 0.958 | 1.01 | 0.904 | 0.765 | 0.797 |  |  |  |  | 
NCI-H1703 | 0.79 | 0.858 | 0.928 | 0.852 | 0.375 | 0.72 | 0.443 | 0.431 | 0.332 | 0.382 | 0.345 |  | 0.317 |  |  |  |  | 
EBC-1 | 0.899 | 0.938 | 1.09 | 0.949 | 0.778 | 0.722 | 0.804 | 0.741 | 0.97 | 0.775 | 0.797 | 0.771 | 0.93 |  |  |  |  | 
NCI-H2342 |  |  |  |  | 0.419 | 0.388 | 0.486 | 0.491 |  |  |  |  |  | 0.342 | 0.357 | 0.322 | 0.317 | 0.327
ChaGo-K-1 |  |  |  |  | 0.546 | 0.426 | 0.435 | 0.362 |  |  |  |  |  | 0.475 | 0.554 | 0.541 | 0.54 | 0.42
HCC-44 | 0.66 | 0.595 | 0.698 | 0.684 | 0.979 | 1.06 | 0.953 | 0.957 | 0.886 | 0.736 | 0.91 | 0.847 | 0.588 |  |  |  |  | 
NCI-H1648 |  |  |  |  | 1.02 | 0.817 |  | 1.3 |  |  |  |  |  |  |  |  |  | 
NCI-H522 |  |  |  |  | 0.63 | 0.712 | 0.726 | 0.803 |  |  |  |  |  | 0.797 | 0.931 | 0.827 | 0.771 | 0.765
A549 | 0.509 | 0.556 | 0.696 | 0.729 | 0.345 | 0.303 | 0.435 | 0.367 | 0.877 | 0.834 | 0.846 | 0.751 | 0.559 |  |  |  |  | 
